Measurements reported in paper PMC4843002, “Identification of pyrazolopyridazinones as PDEδ inhibitors” (Nature Communications, 2016).

How the values were obtained:
PANC-1 cells = type: cell-based
Description: (§1) RTCA was performed using 16-well E-plates on the Dual Plate xCELLigence instrument (Roche Applied Science, Indianapolis, IN). This system measures a dimensionless parameter called cell index, which evaluates the ionic environment at an electrode/solution interface and integrates information on cell number. Depending on the cell line 5 × 10^3–1 × 10^4 cells were plated in each well of the 16-well plates in 200 μl of cell culture medium. After seeding, cells were allowed to settle for 30 min at room temperature before being inserted into the xCELLigence instrument in a humidified incubator at 37 °C with 10% CO2. For RTCA experiments assaying cells stably expressing the inducible shRNA transgene, cells were seeded onto the E-plates in medium supplemented with 200 ng ml^−1 doxycycline. For RTCA experiments, the cells were treated with Deltarasin or Deltazinone 1 after reaching a steady growth (24 h/48 h). The small-molecule inhibitors were added at indicated time points and in the indicated concentrations. […] Continuous impedance measurements were then monitored every 15 min for up to 200 h. All assays were performed in duplicates. The cell index was normalized to 1 at the time point of drug administration. […]

BxPC-3 cells = type: cell-based
Description: as §1

NK1 (h) = biological target: T1, NK1 (h) (Homo sapiens, UniProt P25103); experiment: Cerep binding, agonist radioligand; settings: read-out: % Inhibition of Control Specific Binding
T1 construct: purchased Eurofins Pharma Discovery Services (CEREP diversity panel)

[1] = tested on: sigma (non-selective) (h); experiment: Cerep binding, agonist radioligand; parameters: species or system human; settings: 5 µM
CysLT1 (LTD4) (h) = biological target: T2, CysLT1 (LTD4) (h) (Homo sapiens, UniProt Q9Y271); experiment: Cerep binding, agonist radioligand; settings: read-out: % Inhibition of Control Specific Binding
T2 construct: purchased Eurofins Pharma Discovery Services (CEREP diversity panel)

Cl- channel (GABA-gated) = experiment: Cerep binding, antagonist radioligand; settings: 5 µM
GABA (non-selective) = experiment: Cerep binding, agonist radioligand; settings: 5 µM
TRH1 (h) = biological target: T3, TRH1 (h) (Homo sapiens, UniProt P34981); experiment: Cerep binding, agonist radioligand; settings: read-out: % Inhibition of Control Specific Binding
T3 construct: purchased Eurofins Pharma Discovery Services (CEREP diversity panel)

NOP (ORL1) (h) = biological target: T4, NOP (ORL1) (h) (Homo sapiens, UniProt P41146); experiment: Cerep binding, agonist radioligand; settings: read-out: % Inhibition of Control Specific Binding
T4 construct: purchased Eurofins Pharma Discovery Services (CEREP diversity panel)

AR (h) = biological target: T5, AR (h) (Homo sapiens, UniProt P10275, T878A); experiment: Cerep binding, agonist radioligand; settings: read-out: % Inhibition of Control Specific Binding
T5 construct: purchased Eurofins Pharma Discovery Services (CEREP diversity panel)

ETB (h) = biological target: T6, ETB (h) (Homo sapiens, UniProt P24530); experiment: Cerep binding, agonist radioligand; settings: read-out: % Inhibition of Control Specific Binding
T6 construct: purchased Eurofins Pharma Discovery Services (CEREP diversity panel)

NK3 (h) = biological target: T7, NK3 (h) (Homo sapiens, UniProt P29371); experiment: Cerep binding, antagonist radioligand; settings: read-out: % Inhibition of Control Specific Binding
T7 construct: purchased Eurofins Pharma Discovery Services (CEREP diversity panel)

H1 (h) = biological target: T8, H1 (h) (Homo sapiens, UniProt P35367); experiment: Cerep binding, antagonist radioligand; settings: read-out: % Inhibition of Control Specific Binding
T8 construct: purchased Eurofins Pharma Discovery Services (CEREP diversity panel)

D2S (h) = biological target: T9, D2S (h) (Homo sapiens, UniProt P14416); experiment: Cerep binding, antagonist radioligand; settings: read-out: % Inhibition of Control Specific Binding
T9 construct: purchased Eurofins Pharma Discovery Services (CEREP diversity panel)

D1 (h) = biological target: T10, D1 (h) (Homo sapiens, UniProt P21728); experiment: Cerep binding, antagonist radioligand; settings: read-out: % Inhibition of Control Specific Binding
T10 construct: purchased Eurofins Pharma Discovery Services (CEREP diversity panel)

M (non-selective) = experiment: Cerep binding, antagonist radioligand; settings: 5 µM
alpha 1 (non-selective) = experiment: Cerep binding, antagonist radioligand; settings: 5 µM
5-lipoxygenase (h) = biological target: T11, 5-lipoxygenase (h) (Homo sapiens, UniProt P09917); experiment: Cerep enzyme and cell-based assays; type: biochemical; settings: read-out: % Inhibition of Control Values
T11 construct: purchased Eurofins Pharma Discovery Services (CEREP diversity panel)

beta 1 (h) = biological target: T12, beta 1 (h) (Homo sapiens, UniProt P08588); experiment: Cerep binding, agonist radioligand; settings: read-out: % Inhibition of Control Specific Binding
T12 construct: purchased Eurofins Pharma Discovery Services (CEREP diversity panel)

[2] = biological target: T13, sirtuin 2 (h) (inhibitor effect) (Homo sapiens, UniProt Q8IXJ6); experiment: Cerep enzyme and cell-based assays; type: biochemical; settings: read-out: % Inhibition of Control Values
T13 construct: Eurofins Pharma Discovery Services (CEREP diversity panel, outsourced assay)

P2Y = experiment: Cerep binding, agonist radioligand; settings: 5 µM
PDE3A (h) = biological target: T14, PDE3A (h) (Homo sapiens, UniProt Q14432); experiment: Cerep enzyme and cell-based assays; type: biochemical; settings: read-out: % Inhibition of Control Values
T14 construct: Eurofins Pharma Discovery Services (CEREP diversity panel, outsourced assay)

PR (h) = biological target: T15, PR (h) (Homo sapiens, UniProt P06401); experiment: Cerep binding, agonist radioligand; settings: read-out: % Inhibition of Control Specific Binding
T15 construct: purchased Eurofins Pharma Discovery Services (CEREP diversity panel)

[3] = biological target: T16, N neuronal alpha 4beta 2 (h) (Homo sapiens, UniProt P17787+P43681); experiment: Cerep binding, agonist radioligand; settings: read-out: % Inhibition of Control Specific Binding
T16 construct: purchased Eurofins Pharma Discovery Services (CEREP diversity panel)

Panc-Tu-I cells = experiment: RTCA growth profile; type: cell-based, human
Description: RTCA was performed using 16-well E-plates on the Dual Plate xCELLigence instrument (Roche Applied Science, Indianapolis, IN). This system measures a dimensionless parameter called cell index, which evaluates the ionic environment at an electrode/solution interface and integrates information on cell number. Depending on the cell line 5 × 10^3–1 × 10^4 cells were plated in each well of the 16-well plates in 200 μl of cell culture medium. After seeding, cells were allowed to settle for 30 min at room temperature before being inserted into the xCELLigence instrument in a humidified incubator at 37 °C with 10% CO2. For RTCA experiments assaying cells stably expressing the inducible shRNA transgene, cells were seeded onto the E-plates in medium supplemented with 200 ng ml^−1 doxycycline. […] The small-molecule inhibitors were added at indicated time points and in the indicated concentrations. […] All assays were performed in duplicates. The cell index was normalized to 1 at the time point of drug administration.

BZD (central) = experiment: Cerep binding, agonist radioligand; settings: 5 µM
CCK2 (CCKB) (h) = biological target: T17, CCK2 (CCKB) (h) (Homo sapiens, UniProt P32239); experiment: Cerep binding, agonist radioligand; settings: read-out: % Inhibition of Control Specific Binding
T17 construct: purchased Eurofins Pharma Discovery Services (CEREP diversity panel)

MC4 (h) = biological target: T18, MC4 (h) (Homo sapiens, UniProt P32245); experiment: Cerep binding, agonist radioligand; settings: read-out: % Inhibition of Control Specific Binding
T18 construct: purchased Eurofins Pharma Discovery Services (CEREP diversity panel)

[4] = biological target: T19, norepinephrine transporter (h) (Homo sapiens, UniProt P23975); experiment: Cerep binding, antagonist radioligand; settings: read-out: % Inhibition of Control Specific Binding
T19 construct: purchased Eurofins Pharma Discovery Services (CEREP diversity panel)

AT1 (h) = biological target: T20, AT1 (h) (Homo sapiens, UniProt P30556); experiment: Cerep binding, antagonist radioligand; settings: read-out: % Inhibition of Control Specific Binding
T20 construct: purchased Eurofins Pharma Discovery Services (CEREP diversity panel)

P2X = experiment: Cerep binding, agonist radioligand; settings: 5 µM
V1a (h) = biological target: T21, V1a (h) (Homo sapiens, UniProt P37288); experiment: Cerep binding, agonist radioligand; settings: read-out: % Inhibition of Control Specific Binding
T21 construct: purchased Eurofins Pharma Discovery Services (CEREP diversity panel)

KATP channel = experiment: Cerep binding, antagonist radioligand; settings: 5 µM
A1 (h) = biological target: T22, A1 (h) (Homo sapiens, UniProt P30542); experiment: Cerep binding, antagonist radioligand; settings: read-out: % Inhibition of Control Specific Binding
T22 construct: purchased Eurofins Pharma Discovery Services (CEREP diversity panel)

T18 sequence (P32245 whole entry): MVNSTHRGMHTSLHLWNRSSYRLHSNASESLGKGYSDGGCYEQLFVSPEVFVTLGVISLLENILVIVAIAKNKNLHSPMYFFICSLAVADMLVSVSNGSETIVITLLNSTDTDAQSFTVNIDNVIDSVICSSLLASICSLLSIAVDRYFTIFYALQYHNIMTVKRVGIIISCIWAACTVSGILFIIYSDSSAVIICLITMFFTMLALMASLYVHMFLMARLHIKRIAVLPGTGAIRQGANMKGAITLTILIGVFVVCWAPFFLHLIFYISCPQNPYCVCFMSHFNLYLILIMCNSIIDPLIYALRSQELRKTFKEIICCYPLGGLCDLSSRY
T12 sequence (P08588 whole entry): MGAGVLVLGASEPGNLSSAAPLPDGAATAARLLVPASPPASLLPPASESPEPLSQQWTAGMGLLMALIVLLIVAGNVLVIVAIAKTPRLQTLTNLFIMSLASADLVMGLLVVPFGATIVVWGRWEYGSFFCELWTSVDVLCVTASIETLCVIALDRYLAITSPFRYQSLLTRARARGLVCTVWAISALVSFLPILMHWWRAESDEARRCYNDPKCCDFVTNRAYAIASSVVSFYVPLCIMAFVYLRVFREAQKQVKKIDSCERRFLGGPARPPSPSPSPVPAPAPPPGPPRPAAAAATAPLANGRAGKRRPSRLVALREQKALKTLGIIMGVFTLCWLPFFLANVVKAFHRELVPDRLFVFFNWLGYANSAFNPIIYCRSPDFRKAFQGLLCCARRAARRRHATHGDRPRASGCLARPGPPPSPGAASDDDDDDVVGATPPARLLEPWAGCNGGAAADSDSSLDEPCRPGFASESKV
T5 sequence (P10275 whole entry T878A): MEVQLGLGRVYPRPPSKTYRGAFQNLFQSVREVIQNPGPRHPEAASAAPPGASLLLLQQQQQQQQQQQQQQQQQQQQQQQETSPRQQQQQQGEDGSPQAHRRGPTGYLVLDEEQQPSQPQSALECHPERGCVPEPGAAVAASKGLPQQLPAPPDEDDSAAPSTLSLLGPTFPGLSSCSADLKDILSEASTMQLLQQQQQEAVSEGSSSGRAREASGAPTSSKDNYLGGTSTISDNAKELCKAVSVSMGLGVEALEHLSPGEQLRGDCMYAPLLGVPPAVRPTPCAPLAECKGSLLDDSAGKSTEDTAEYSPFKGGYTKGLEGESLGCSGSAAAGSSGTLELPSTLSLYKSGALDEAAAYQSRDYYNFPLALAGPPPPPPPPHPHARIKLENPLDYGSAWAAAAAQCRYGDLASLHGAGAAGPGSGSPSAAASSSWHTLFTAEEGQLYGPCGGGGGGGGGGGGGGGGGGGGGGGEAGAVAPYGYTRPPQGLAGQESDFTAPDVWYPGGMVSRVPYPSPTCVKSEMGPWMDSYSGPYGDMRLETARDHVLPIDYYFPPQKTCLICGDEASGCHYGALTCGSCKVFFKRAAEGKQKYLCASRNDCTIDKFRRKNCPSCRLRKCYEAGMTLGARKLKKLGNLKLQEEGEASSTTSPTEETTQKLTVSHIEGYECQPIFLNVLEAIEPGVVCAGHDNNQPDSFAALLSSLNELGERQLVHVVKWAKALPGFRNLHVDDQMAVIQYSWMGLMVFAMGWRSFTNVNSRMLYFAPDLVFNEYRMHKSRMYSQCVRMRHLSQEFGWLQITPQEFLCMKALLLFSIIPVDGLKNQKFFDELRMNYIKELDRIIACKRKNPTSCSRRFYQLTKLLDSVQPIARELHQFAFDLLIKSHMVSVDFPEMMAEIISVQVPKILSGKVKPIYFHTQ
T7 sequence (P29371 whole entry): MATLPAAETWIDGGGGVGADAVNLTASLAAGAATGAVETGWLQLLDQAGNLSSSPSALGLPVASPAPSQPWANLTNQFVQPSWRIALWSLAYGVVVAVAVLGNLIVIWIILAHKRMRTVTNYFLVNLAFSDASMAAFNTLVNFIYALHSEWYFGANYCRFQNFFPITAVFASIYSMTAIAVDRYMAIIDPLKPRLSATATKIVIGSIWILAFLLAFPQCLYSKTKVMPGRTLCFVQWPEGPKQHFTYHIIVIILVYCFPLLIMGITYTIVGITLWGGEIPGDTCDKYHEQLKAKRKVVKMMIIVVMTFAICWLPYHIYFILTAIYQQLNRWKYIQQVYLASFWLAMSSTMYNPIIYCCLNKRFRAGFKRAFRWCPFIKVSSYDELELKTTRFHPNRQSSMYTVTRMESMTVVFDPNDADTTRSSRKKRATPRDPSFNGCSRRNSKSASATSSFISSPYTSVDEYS
T14 sequence (Q14432 whole entry): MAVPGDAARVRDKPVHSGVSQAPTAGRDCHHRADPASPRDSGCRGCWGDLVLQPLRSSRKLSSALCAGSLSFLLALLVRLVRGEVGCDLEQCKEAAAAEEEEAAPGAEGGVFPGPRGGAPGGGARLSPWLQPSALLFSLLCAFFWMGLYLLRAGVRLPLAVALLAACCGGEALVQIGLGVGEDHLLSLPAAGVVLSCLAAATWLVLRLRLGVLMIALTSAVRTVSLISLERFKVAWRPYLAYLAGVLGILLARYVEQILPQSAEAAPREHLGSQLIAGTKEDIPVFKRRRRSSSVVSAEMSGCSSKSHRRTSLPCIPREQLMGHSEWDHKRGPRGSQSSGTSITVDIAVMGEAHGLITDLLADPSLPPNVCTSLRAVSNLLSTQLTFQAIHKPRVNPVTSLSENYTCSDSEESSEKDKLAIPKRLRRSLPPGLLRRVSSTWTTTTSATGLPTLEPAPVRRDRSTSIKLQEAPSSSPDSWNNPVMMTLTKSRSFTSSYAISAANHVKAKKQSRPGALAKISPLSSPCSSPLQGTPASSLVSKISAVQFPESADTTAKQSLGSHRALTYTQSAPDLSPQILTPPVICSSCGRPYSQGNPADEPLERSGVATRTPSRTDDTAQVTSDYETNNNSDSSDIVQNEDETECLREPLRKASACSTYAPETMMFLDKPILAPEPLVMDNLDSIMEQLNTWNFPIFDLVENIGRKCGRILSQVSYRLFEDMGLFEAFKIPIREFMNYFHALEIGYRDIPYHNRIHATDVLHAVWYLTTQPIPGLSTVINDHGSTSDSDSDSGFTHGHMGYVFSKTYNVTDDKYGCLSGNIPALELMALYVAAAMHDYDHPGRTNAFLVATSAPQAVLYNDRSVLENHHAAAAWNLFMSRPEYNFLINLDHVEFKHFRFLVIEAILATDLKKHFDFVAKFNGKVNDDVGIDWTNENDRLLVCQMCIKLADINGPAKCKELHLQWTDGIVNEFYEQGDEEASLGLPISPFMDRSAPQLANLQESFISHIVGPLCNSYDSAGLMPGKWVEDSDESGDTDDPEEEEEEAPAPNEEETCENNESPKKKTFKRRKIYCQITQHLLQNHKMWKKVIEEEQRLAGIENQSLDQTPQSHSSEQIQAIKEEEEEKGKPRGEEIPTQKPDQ
T1 sequence (P25103 whole entry): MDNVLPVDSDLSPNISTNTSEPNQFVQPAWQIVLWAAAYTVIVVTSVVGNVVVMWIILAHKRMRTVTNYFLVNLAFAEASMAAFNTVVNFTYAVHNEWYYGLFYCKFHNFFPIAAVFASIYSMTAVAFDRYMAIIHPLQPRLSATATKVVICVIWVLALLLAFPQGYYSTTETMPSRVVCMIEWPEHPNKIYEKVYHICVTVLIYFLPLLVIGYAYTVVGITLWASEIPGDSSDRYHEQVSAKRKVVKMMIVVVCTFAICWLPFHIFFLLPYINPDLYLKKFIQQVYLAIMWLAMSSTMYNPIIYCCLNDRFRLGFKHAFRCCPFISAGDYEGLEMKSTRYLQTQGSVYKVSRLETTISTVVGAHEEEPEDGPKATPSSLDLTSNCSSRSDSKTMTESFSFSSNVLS
T17 sequence (P32239 whole entry): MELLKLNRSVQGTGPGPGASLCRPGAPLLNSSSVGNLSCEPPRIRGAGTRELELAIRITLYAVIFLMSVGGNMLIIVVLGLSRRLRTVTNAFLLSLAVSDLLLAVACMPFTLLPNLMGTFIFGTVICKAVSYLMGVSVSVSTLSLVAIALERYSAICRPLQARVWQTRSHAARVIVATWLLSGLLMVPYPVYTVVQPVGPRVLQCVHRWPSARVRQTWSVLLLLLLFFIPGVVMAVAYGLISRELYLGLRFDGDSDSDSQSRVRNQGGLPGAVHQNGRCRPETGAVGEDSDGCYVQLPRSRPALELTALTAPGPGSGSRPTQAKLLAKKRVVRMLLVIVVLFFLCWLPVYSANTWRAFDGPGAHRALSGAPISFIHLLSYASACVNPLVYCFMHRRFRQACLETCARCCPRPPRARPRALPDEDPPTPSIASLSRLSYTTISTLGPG
T3 sequence (P34981 whole entry): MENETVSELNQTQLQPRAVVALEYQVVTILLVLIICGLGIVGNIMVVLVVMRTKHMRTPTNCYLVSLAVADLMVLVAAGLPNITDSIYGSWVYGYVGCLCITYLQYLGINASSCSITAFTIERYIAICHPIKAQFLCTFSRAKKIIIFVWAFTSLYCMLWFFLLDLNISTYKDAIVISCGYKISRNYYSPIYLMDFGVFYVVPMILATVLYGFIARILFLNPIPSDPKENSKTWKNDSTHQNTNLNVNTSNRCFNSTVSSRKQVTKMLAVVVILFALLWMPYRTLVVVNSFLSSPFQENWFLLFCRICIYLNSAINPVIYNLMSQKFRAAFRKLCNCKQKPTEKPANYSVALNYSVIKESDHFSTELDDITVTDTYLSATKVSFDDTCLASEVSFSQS
T21 sequence (P37288 whole entry): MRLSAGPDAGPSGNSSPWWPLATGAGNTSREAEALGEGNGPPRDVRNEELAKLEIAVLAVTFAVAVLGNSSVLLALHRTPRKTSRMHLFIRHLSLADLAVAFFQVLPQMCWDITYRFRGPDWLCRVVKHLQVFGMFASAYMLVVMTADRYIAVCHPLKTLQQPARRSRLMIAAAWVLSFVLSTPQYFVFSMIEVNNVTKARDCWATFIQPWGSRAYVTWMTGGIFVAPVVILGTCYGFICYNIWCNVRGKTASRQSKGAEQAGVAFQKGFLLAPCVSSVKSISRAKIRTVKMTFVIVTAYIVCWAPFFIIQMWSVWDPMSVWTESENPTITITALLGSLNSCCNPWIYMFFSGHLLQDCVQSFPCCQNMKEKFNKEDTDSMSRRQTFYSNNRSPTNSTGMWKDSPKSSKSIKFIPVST

SMILES: Cc1ccc(-n2nc3c(=O)n(CCCC(=O)NCC(C)c4ccccc4)nc(C)c3c2C)cc1 (stereo not drawn) [2k]
- effect on growth (PANC-1 cells; PANC-1, doses up to 24 μM): little or no growth inhibitory effect
- effect on growth (BxPC-3 cells; BxPC-3, doses up to 24 μM): little or no growth inhibitory effect
- inhibition at 5 µM (NK1 (h)): 3%
- % Inhibition of Control Specific Binding [1]: 3%
- inhibition at 5 µM (CysLT1 (LTD4) (h)): 0%
- % Inhibition of Control Specific Binding (Cl- channel (GABA-gated)): 17%
- % Inhibition of Control Specific Binding (GABA (non-selective)): -7%
- inhibition at 5 µM (TRH1 (h)): 7%
- inhibition at 5 µM (NOP (ORL1) (h)): 6%
- inhibition at 5 µM (AR (h)): 5%
- inhibition at 5 µM (ETB (h)): -12%
- inhibition at 5 µM (NK3 (h)): 17%
- inhibition at 5 µM (H1 (h)): 2%
- inhibition at 5 µM (D2S (h)): -1%
- inhibition at 5 µM (D1 (h)): 2%
- % Inhibition of Control Specific Binding (M (non-selective)): 21%
- % Inhibition of Control Specific Binding (alpha 1 (non-selective)): 4%
- inhibition at 5 µM (5-lipoxygenase (h)): 1%
- inhibition at 5 µM (beta 1 (h)): -1%
- inhibition at 5 µM [2]: 6%
- % Inhibition of Control Specific Binding (P2Y): 16%
- inhibition at 5 µM (PDE3A (h)): 1%
- inhibition at 5 µM (PR (h)): 3%
- inhibition at 5 µM [3]: -8%
- onset of cell death after treatment (Panc-Tu-I cells; 24 μM): ~13 h
- time after administration at which decreasing cell indices indicated cell death (Panc-Tu-I cells; doses higher than 3 μM): ~30 h
- % Inhibition of Control Specific Binding (BZD (central)): -24%
- inhibition at 5 µM (CCK2 (CCKB) (h)): -22%
- inhibition at 5 µM (MC4 (h)): -1%
- inhibition at 5 µM [4]: 8%
- inhibition at 5 µM (AT1 (h)): 9%
- % Inhibition of Control Specific Binding (P2X): 1%
- inhibition at 5 µM (V1a (h)): -4%
- % Inhibition of Control Specific Binding (KATP channel): 16%
- inhibition at 5 µM (A1 (h)): 0%

SMILES: c1ccc(Cn2c(-c3ccc(OC[C@H](C4CCNCC4)n4c(-c5ccccc5)nc5ccccc54)cc3)nc3ccccc32)cc1 [Deltarasin, reference compound]
- concentration resulting in rapid cell death (unspecific cytotoxicity) (PANC-1 cells; human): above 9 μM
- concentration resulting in rapid cell death (unspecific cytotoxicity) (BxPC-3 cells; human): above 9 μM
- inhibition at 5 µM (NK1 (h)): 89%
- % Inhibition of Control Specific Binding [1]: 57%
- inhibition at 5 µM (CysLT1 (LTD4) (h)): -5%
- % Inhibition of Control Specific Binding (Cl- channel (GABA-gated)): 2%
- % Inhibition of Control Specific Binding (GABA (non-selective)): 14%
- inhibition at 5 µM (TRH1 (h)): 42%
- inhibition at 5 µM (NOP (ORL1) (h)): 10%
- inhibition at 5 µM (AR (h)): -23%
- inhibition at 5 µM (ETB (h)): 15%
- inhibition at 5 µM (NK3 (h)): 61%
- inhibition at 5 µM (H1 (h)): 78%
- inhibition at 5 µM (D2S (h)): 98%
- inhibition at 5 µM (D1 (h)): 99%
- % Inhibition of Control Specific Binding (M (non-selective)): 96%
- % Inhibition of Control Specific Binding (alpha 1 (non-selective)): 33%
- inhibition at 5 µM (5-lipoxygenase (h)): 33%
- inhibition at 5 µM (beta 1 (h)): 21%
- inhibition at 5 µM [2]: 15%
- % Inhibition of Control Specific Binding (P2Y): 13%
- inhibition at 5 µM (PDE3A (h)): 11%
- inhibition at 5 µM (PR (h)): 41%
- inhibition at 5 µM [3]: -10%
- onset of detectable cell death post treatment (Panc-Tu-I cells; 5 μM): ~9 h
- % Inhibition of Control Specific Binding (BZD (central)): -17%
- inhibition at 5 µM (CCK2 (CCKB) (h)): 29%
- inhibition at 5 µM (MC4 (h)): 32%
- inhibition at 5 µM [4]: 70%
- inhibition at 5 µM (AT1 (h)): 41%
- % Inhibition of Control Specific Binding (P2X): 10%
- inhibition at 5 µM (V1a (h)): 21%
- % Inhibition of Control Specific Binding (KATP channel): -10%
- inhibition at 5 µM (A1 (h)): 37%
